According to ChEMBL document CHEMBL3102855, “Synthesis of long-chain fatty acid derivatives as a novel anti-Alzheimer's agent” (Bioorg Med Chem Lett, 2014):
Activity calls are given as the source filed them. No cut-off for these calls is given here.

Tested on: Cortical neurone
Test: Induction of dendrite extension in rat cortical neurons assessed as inhibition of amyloid beta (25 to 35)-induced neuronal degeneration at 1 uM after 4 days by fluorescence microscopic analysis
Type: functional

Structure (SMILES)	Activity
CCCCCCCCCCCCCCCCCCCCCCCCCCCCCCCCCCCCC(=O)O	Active
CCCCCCCCCCCCC/C=C\CCCCCCCCCCCCCO	Active
CCCCCCCCCCCCC/C=C\CCCCCCCCCCCCC(=O)O	Active
CC/C=C\CCCCCCCCC/C=C\CCCCCCCCCCCCCCCCCCCCCC(=O)O	Active
CCCCCCCCCC/C=C\CCCCCCCCCC(=O)O	Active
CCCCCCCCCCCCCCCCC/C=C\CCCCCCCCCCCCCCCCCCCCCC(=O)O	Active
CCCCCCCCCCCCCCCCCCCCCC(=O)O	Active
CC/C=C\CCCCCCCCC/C=C\CCCCCCCC(=O)O	Active
CC/C=C\CCCCCCCCC/C=C\CCCCCCCCCCC(=O)O	Active
CCCCCCCCCC/C=C\C/C=C\CCCCCCCCCCCCCCCCCCCCCC(=O)O	Active
CC/C=C\CCCCCCCCC/C=C\CCCCCCCCCCCCCCCCCCCCCCCCCCCCCC(=O)O	Active
CCCCCCC/C=C\CCCC/C=C\CCCCCCCCCCCCCCCCCCCCCC(=O)O	Active
CCCCC/C=C\CCCCCC/C=C\CCCCCCCCCCCCCCCCCCCCCC(=O)O	Active
CCCCCCCCCCCCCCCCCCCCCCCCCCCC(=O)O	Active
CC/C=C\CCCCCCCCC/C=C\CCC(=O)O	Active
CCCCCCCCCCCCC/C=C\CCCCCCCCCCCCCCCCCCCCCC(=O)O	Active
CCCCCCCCCCCCC/C=C\CCCCCCCCCCCCCCCCCCCCCCO	Active
